In patent US9120787B2, “HIV replication inhibitors” (priority 2011, dated 2015):
Like-named read-outs stand apart in the source and are kept apart here.

Columns and labels:
HIV-1Ba-L [1] = assay: HIV-1Ba-L replication in PBMCs (supernatant RT end-point)
Procedure, shortened: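 Pooled PHA-stimulated human PBMCs (5×10^4 cells/well) were infected with HIV-1Ba-L at MOI 0.1 with nine ½-log compound dilutions and cultured seven days at 37° C. Supernatant RT activity was measured by ^3H-TTP incorporation on poly rA:oligo dT (60 minutes, 37° C) and counted by scintillation.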

HIV-1 K103N, Y181C (A17) = HIV-1 K103N, Y181C (A17) replication in PBMCs; assay type: cell-based; conditions: Virus A17 (K103N, Y181C) in PBMCs
Source text: In another embodiment of the present disclosure compounds are provided which inhibit the replication of HIV strains resistant to NNRTIs. Compounds in this disclosure inhibit, A17, an HIV-1 virus with mutations in the RT non-nucleoside binding pocket, K103N and Y181C, in a dose-dependent susceptibility testing manner.
The asparagine variation at residue 103 and the cysteine variation at residue 181 are known to inhibit the activity of the NNRTI's.
Evaluation Dihydropyrimidines vs. HIV-1Ba-L and HIV-1 K103N, Y181C in PBMCs

MAGI-CCR5 cells = assay: Cytotoxicity by MTS staining in uninfected MAGI-CCR5 cells; assay type: cell-based; conditions: 48 hours, read-out: TC50 (the source's name)
Procedure, shortened: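 Uninfected MAGI-CCR5 cells (HeLa-CD4-LTR-β-gal derived, expressing CD4/CCR5) plated at 1.0×10^4 cells/well the day before, then exposed to compounds at six concentrations in triplicate alongside parallel infected assays. Viability read by MTS staining.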

[2] = tested on: peripheral blood mononuclear cells (PBMC); assay: Cytotoxicity by MTS staining in PBMCs; assay type: cell-based; conditions: read-out: TC50 (the source's name)
Procedure: Cytotoxicity was assessed by MTS staining. At assay end-point, PBMC were stained with the addition of […] of the soluble tetrazolium-based dye MTS to determine cell viability and quantify compound toxicity. The plates were incubated 4 to 6 hrs at 37° C. Following incubation, the activity was assessed by reading absorbance values at 490/650 nm.

HIV-1Ba-L [3] = assay: Inhibition of virus replication in MAGI-CCR5 cells (β-galactosidase reporter); assay type: cell-based; conditions: HIV-1Ba-L in MAGI-CCR5 cells
Procedure, shortened: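 HeLa-derived MAGI-CCR5 cells (high CD4/CCR5, HIV-1 LTR-driven β-galactosidase) plated at 1.0×10^4 cells/well the day before infection with HIV-1Ba-L. Compounds tested at six concentrations in triplicate, with parallel uninfected plates for cytotoxicity.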

[4] = Virus Ba-L in PBMCs (Ba-L vs A17 comparison)

## Cc1cn([C@H]2C[C@H](N=[N+]=[N-])[C@@H](CO)O2)c(=O)[nH]c1=O [AZT, reference compound]
HIV-1Ba-L [1]; HIV-1Ba-L in PBMCs
  TI (TC50/IC50): >54.9
HIV-1Ba-L [1]; HIV-1Ba-L in PBMCs, seven days, RT end-point
  IC50: 0.02 µM
HIV-1Ba-L [1]; [4]
  IC50: 0.011 µM
  TI (TC50/IC50): >88.6
HIV-1 K103N, Y181C (A17)
  TI (TC50/IC50): >629.0
HIV-1 K103N, Y181C (A17); read-out: IC50
  IC50: 0.0016 µM
MAGI-CCR5 cells
  CC50: > 1 µM
[2]; A17 line of the table
  CC50: > 1 µM
[2]; Ba-L line of the table
  CC50: > 1 µM
[2]; MTS staining
  CC50: > 1 µM
HIV-1Ba-L [3]
  TI (TC50/IC50): >36.5
HIV-1Ba-L [3]; 48 hours, β-galactosidase reporter expression, read-out: IC50
  IC50: 0.08 µM
